From patent publication US12086788B2, “Substituted pyrazines as inhibitors of BTK, and mutants thereof” (Newave Pharmaceutical Inc., priority 2018, dated 2024)
“Also recorded” adds a separate entry of the source.

Legend:
WT BTK [1] = molecular target: T1, WT BTK (Homo sapiens, UniProt Q06187); assay: In vitro dialysis assay (irreversibility assay); assay type: biochemical; conditions: from recovery after 24 h dialysis
Method: The compound-enzyme complex was dialyzed against the same buffer supplemented with 40 mM ATP for 24 hr. Cumulative dialysis factor>160,000×. After dialysis, the BTK activity was measured in the presence […] and 1 mM substrate peptide and compared to that in non-dialyzed samples. Assay buffer: 100 mM HEPES, pH7.5; 0.1% BSA, 0.01% Triton-X 100; 5 mM MgCl2; 1 mM DTT.

WT BTK [2] = molecular target: T1, WT BTK; assay: Caliper-based biochemical enzymatic assay (IC50), WT BTK; conditions: 0.5 nM enzyme, ATP 16 μM, room temperature 3 h; read-out: WT BTK IV50 (nM) (irreversible inhibition)
Method: (§1) The reaction was then terminated with EDTA, final concentration 20 mM and the phosphorylated reaction product was quantified on a Caliper Desktop Profiler (Caliper LabChip 3000).

C481S BTK [3] = molecular target: T2, C481S BTK (Homo sapiens, UniProt Q06187, C481S); assay: Caliper-based biochemical enzymatic assay (IC50), C481S BTK; conditions: for IC50: 0.5 nM enzyme, ATP 16 μM, room temperature 3 h, read-out: C481S BTK IC50 (nM) (reversible inhibition)
Method: as §1

C481S BTK [4] = molecular target: T2, C481S BTK; assay: Reversibility of binding to the C481S BTK enzyme; assay type: biochemical; conditions: Cysteine residue not available for covalent binding
[5] = system: basophil activation, B cell receptor activation, and constitutive p-BTK activity in whole blood lysates; conditions: read-out: IC50s for basophil activation, B cell receptor activation, and constitutive p-BTK activity; cited from earlier work
rats = conditions: treatment for longer than 7 days; cited from earlier work
mice = conditions: even at higher doses; cited from earlier work
dogs = conditions: even at higher doses; cited from earlier work
[6] = Phase I clinical trials, formulations containing GDC-0853; cited from earlier work

T1 sequence (Q06187 whole entry): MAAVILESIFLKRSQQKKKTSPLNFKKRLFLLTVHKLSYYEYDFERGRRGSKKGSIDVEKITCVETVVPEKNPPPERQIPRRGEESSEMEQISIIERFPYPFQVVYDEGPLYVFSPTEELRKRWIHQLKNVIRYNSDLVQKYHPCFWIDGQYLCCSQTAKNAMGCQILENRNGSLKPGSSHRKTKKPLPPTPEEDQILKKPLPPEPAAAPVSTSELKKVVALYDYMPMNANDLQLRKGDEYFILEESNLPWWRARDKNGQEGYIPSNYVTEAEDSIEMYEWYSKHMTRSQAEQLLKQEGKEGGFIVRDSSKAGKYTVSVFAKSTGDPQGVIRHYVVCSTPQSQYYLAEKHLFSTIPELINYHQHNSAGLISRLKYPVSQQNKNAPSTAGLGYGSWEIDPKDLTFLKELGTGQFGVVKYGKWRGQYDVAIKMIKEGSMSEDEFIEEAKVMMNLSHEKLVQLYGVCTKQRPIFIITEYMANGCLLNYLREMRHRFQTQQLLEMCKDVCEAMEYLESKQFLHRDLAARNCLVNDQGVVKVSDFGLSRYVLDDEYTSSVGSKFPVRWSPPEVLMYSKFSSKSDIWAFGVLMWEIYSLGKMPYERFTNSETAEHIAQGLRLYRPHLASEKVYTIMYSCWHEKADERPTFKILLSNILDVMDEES
T2 sequence (Q06187 whole entry C481S): as the sequence (Q06187 whole entry) above, with C481S counted along it

Row | IC50 (WT BTK [2]) | fold more potent than ACT-196 in C481S BTK assay (C481S BTK [3]) | fold more potent than Ibrutinib in C481S BTK assay (C481S BTK [3]) | IC50 (C481S BTK [3]) | mode of binding to C481S BTK (C481S BTK [4]) | SMILES | Conclusion (WT BTK) (WT BTK [1]) | IC50 [5] | pancreatic toxicity (rats) | pancreatic toxicity (mice) | pancreatic toxicity (dogs) | tolerability [6]
1 | 0.25 nM | 477 | 64 | 1.7 nM | reversibly bind | C=CC(=O)Nc1cc(Nc2nc(-c3ccnc(N4CCn5c(cc6c5CC(C)(C)C6)C4=O)c3CO)cn(C)c2=O)ccc1N1CCN(C)CC1 [Example 2, N-(5-((6-(2-(7,7-dimethyl-1-oxo-1,3,4,6,7,8-hexahydro-2H-cyclopenta[4,5]pyrrolo[1,2-a]pyrazin-2-yl)-3-(hydroxymethyl)pyridin-4-yl)-4-methyl-3-oxo-3,4-dihydropyrazin-2-yl)amino)-2-(4-methylpiperazin-1-yl)phenyl)acrylamide] | irreversible inhibitors; also recorded: Irreversible/covalent inhibition |  |  |  |  | 
2 | < 1 nM |  |  | < 1 nM |  | C=CC(=O)Nc1cc(Nc2nc(-c3ccnc(N4CCn5c(cc6c5CC(C)(C)C6)C4=O)c3CO)cn(C)c2=O)ccc1N1CCN(C2COC2)C[C@@H]1C [Example 3, (S)—N-(5-((6-(2-(7,7-dimethyl-1-oxo-1,3,4,6,7,8-hexahydro-2H-cyclopenta[4,5]pyrrolo[1,2-a]pyrazin-2-yl)-3-(hydroxymethyl)pyridin-4-yl)-4-methyl-3-oxo-3,4-dihydropyrazin-2-yl)amino)-2-(2-methyl-4-(oxetan-3-yl)piperazin-1-yl)phenyl)acrylamide] | irreversible inhibitors; also recorded: Irreversible/covalent inhibition |  |  |  |  | 
3 | < 1 nM |  |  | < 1 nM |  | C=CC(=O)Nc1cc(Nc2nc(-c3ccnc(N4CCn5c(cc6c5CC(C)(C)C6)C4=O)c3C)cn(C)c2=O)ccc1N1CCN(C2COC2)C[C@@H]1C [Example 11, (S)—N-(5-((6-(2-(7,7-dimethyl-1-oxo-1,3,4,6,7,8-hexahydro-2H-cyclopenta[4,5]pyrrolo[1,2-a]pyrazin-2-yl)-3-methylpyridin-4-yl)-4-methyl-3-oxo-3,4-dihydropyrazin-2-yl)amino)-2-(2-methyl-4-(oxetan-3-yl)piperazin-1-yl)phenyl)acrylamide] | irreversible inhibitors; also recorded: Irreversible/covalent inhibition |  |  |  |  | 
4 | < 1 nM |  |  | < 1 nM |  | C=CC(=O)Nc1cc(Nc2nc(-c3ccnc(N4CCn5c(cc6c5CC(C)(C)C6)C4=O)c3CO)cn(C)c2=O)ccc1N1CCC(N2CCOCC2)CC1C (stereo not drawn) [Example 12, N-(5-((6-(2-(7,7-dimethyl-1-oxo-1,3,4,6,7,8-hexahydro-2H-cyclopenta[4,5]pyrrolo[1,2-a]pyrazin-2-yl)-3-(hydroxymethyl)pyridin-4-yl)-4-methyl-3-oxo-3,4-dihydropyrazin-2-yl)amino)-2-(2-methyl-4-morpholinopiperidin-1-yl)phenyl)acrylamide] | irreversible inhibitors; also recorded: Irreversible/covalent inhibition |  |  |  |  | 
5 |  |  |  |  |  | C[C@H]1CN(C2COC2)CCN1c1ccc(Nc2cc(-c3ccnc(N4CCn5c(cc6c5CC(C)(C)C6)C4=O)c3CO)cn(C)c2=O)nc1 [GDC-0853] | Reversible | 2 to 9 nM | pancreatic toxicity | does not occur | does not occur | well-tolerated
